This is an account of results in patent US20240181020A1, “TREATMENT OF HYPOPARATHYROIDISM” (Entera Bio Ltd., priority 2015, published 2024).

SMILES strings stand for the structures.

A short description of data set [1]: Release of SNAC from tablets with or without sodium bicarbonate in simulated gastric buffer. The class given is physicochemical. The note with it: tablet with 100 mg sodium bicarbonate vs without; simulated gastric buffer pH 2.0, 37° C., 50 rotations per minute; FIG. 24. The method, then:
The tablets were in a form of a homogeneous mixture. Each tablet formulation was subjected to a dissolution test in 100 ml of simulated gastric buffer (without pepsin), pH 2.0, at 37° C., according to USP 23 Apparatus 2 (paddle) with 50 rotations per minute. The amount of released SNAC in each sample was determined chromatographically, using an HPLC apparatus with Cosmosil™ 5 C18-MS-II (4.6 ID×250 mm) column. Mobile phase consisted of 50% acetonitrile and 50% phosphoric acid solution (0.1%). Flow rate was 1 ml/minute and injection volume was 25 μl. Amount of released SNAC was calculated as a percentage of the amount of SNAC in the formulation.

The nature of data set [2]: Phase I clinical study: plasma PTH(1-34) after oral teriparatide tablets vs subcutaneous injection. Particulars: healthy volunteers, FIG. 1. It counts as in vivo, human. The method, then:
A Phase I clinical study of exemplary oral formulations comprising teriparatide (parathyroid hormone (1-34)) was conducted at the Hadassah Clinical Research Center. 42 healthy volunteers were included throughout the study.
The formulation was composed of teriparatide (200, 400, 680, 1400 or 1800 μg), SNAC (sodium 8-N-(2-hydroxybenzoyl) aminocaprylate), soybean trypsin inhibitor and magnesium stearate.
Tablets were administered in the morning after an 8-hour overnight fast and immediately followed by 150 ml of water. At each visit a standard meal was provided 3 hours after drug administration.
To determine parathyroid hormone(1-34) concentrations, blood samples (4 ml each) were drawn via an indwelling catheter from the forearm vein at predetermined time points. The cannula was flushed with 1.5 ml normal saline after each sampling. In addition, to avoid sample dilution, 1 ml of blood was drawn and discarded before the next sample. The blood samples were taken at following times: baseline (predose), 15 minutes, 30 minutes, 45 minutes, 60 minutes, 75 minutes, 90 minutes, 105 minutes, 2 hours, 3 hours, 4 hours and 5 hours post-administration. Each blood sample was collected into a single tube containing EDTA (ethylenediaminetetraacetic acid) and placed on ice. […] PTH levels were measured using an IDS-iSYS automated assay for the measurement of intact PTH in human plasma or serum. […]

For data set [3], the system named is plasma levels of cAMP, a known marker of PTH activity. In words: Phase I clinical study: plasma cAMP as marker of PTH activity. The class given is in vivo, human. Particulars: oral 680 μg and subcutaneous 20 μg teriparatide; FIG. 3. The method, then:
In addition, plasma levels of cAMP, a known marker of PTH activity, were determined in order to confirm biological activity of administered PTH. cAMP plasma levels were measured following oral administration of 680 μg teriparatide or subcutaneous injection of 20 μg teriparatide, as described hereinabove.

Data set [4] concerns patients with established primary hypoparathyroidism (PHP). As to the kind of experiment: Phase IIa multi-center clinical study of oral teriparatide, 4 times per day for 16 weeks. The class given is in vivo, human. The method, then:
A Phase IIa multi-center clinical study of an exemplary oral formulation comprising teriparatide was conducted on 19 patients with established primary hypoparathyroidism (PHP) (for more than one year). PHP was postsurgical in 13 patients, autoimmune in 5 patients and hereditary in 1 patient.
The average age of the patients was 44.5 years (range 20.3 to 71 years). At enrollment, the patients were treated with an average of 3.64 grams calcium supplement per day (range 1-10.8 grams per day) and 1.1 μg alphacalcidol supplement per day (range 0-2 μg per day). Patients with low hemoglobin, estimated glomerular filtration rate (eGFR) of less than 40 ml per minute per 1.73 m^2, liver enzymes at least 3 times the upper limit, drug or alcohol abuse, kidney/urinary tract stones, 25-hydroxycholecalciferol (25(OH)D) serum levels of less than 20 ng/ml or BMI outside the range of […] were excluded from the study.
The formulation was composed of teriparatide (750 μg per dose), SNAC, soybean trypsin inhibitor and magnesium stearate.
Teriparatide was administered 4 times per day, prior to meals, for 16 weeks. Following the first two doses, plasma samples were taken for pharmacokinetic analysis by determining teriparatide serum levels according to procedures described in Example 1. On the first day of treatment during follow up visits at the end of weeks 1, 2, 3, 4, 6, 8, 10, 12 and 16, serum calcium, phosphorus, albumin, and creatinine were evaluated, and dose adjustment of supplemental calcium medications was performed based on albumin adjusted calcium (ACa) levels. 24 hour urine samples were collected at the end of weeks 8 and 16. Quality of Life was (QoL) was monitored using a standard questionnaire.

The nature of data set [5]: Open label comparative pharmacokinetic study: oral teriparatide tablet with water or sodium bicarbonate solution. It counts as in vivo, human. The note with it: 0.75 mg oral tablet with 150 ml of 3 mg/ml sodium bicarbonate solution vs 150 ml water; ten healthy volunteers; FIG. 25. The method, then: An open label comparative pharmacokinetic study was performed on ten healthy volunteers. On different visits, each volunteer received the same oral tablet containing 0.75 mg of teriparatide, a recombinant form of parathyroid hormone (1-34) (PTH(1-34)). In the first visit, the tablet was administered with 150 ml water, whereas in the second visit the tablet was administered with 150 ml of 3 mg/ml sodium bicarbonate aqueous solution.
The formulation was composed of teriparatide (0.75 mg), SNAC (sodium 8-N-(2-hydroxybenzoyl) aminocaprylate), soybean trypsin inhibitor (SBTI) and a small amount of magnesium stearate.
Tablets were administered in the morning after an 8-hour overnight fast. At each visit a standard meal was provided 3 hours after drug administration. […] There was a two week period between the two visits.
To determine PTH(1-34) concentrations, blood samples were drawn and PTH(1-34) levels were measured using an IDS-iSYS automated assay, using procedures described in Example 1 hereinabove. Relative absorption was determined based on the AUC (area under curve) parameter.

The nature of data set [6]: Phase IIa study: teriparatide serum levels after oral dosing before and after a meal. The class given is in vivo, human. Particulars: second administration on day 1 vs empty stomach. The method, then:
To determine parathyroid hormone(1-34) concentrations, blood samples (4 ml each) were drawn via an indwelling catheter from the forearm vein at predetermined time points. The cannula was flushed with 1.5 ml normal saline after each sampling. In addition, to avoid sample dilution, 1 ml of blood was drawn and discarded before the next sample. The blood samples were taken at following times: baseline (predose), 15 minutes, 30 minutes, 45 minutes, 60 minutes, 75 minutes, 90 minutes, 105 minutes, 2 hours, 3 hours, 4 hours and 5 hours post-administration. Each blood sample was collected into a single tube containing EDTA (ethylenediaminetetraacetic acid) and placed on ice. Within 15 minutes of blood collection, samples were centrifuged for 10 minutes at 4° C. […] PTH levels were measured using an IDS-iSYS automated assay for the measurement of intact PTH in human plasma or serum.
Teriparatide was administered 4 times per day, prior to meals, for 16 weeks. […] On the first day of treatment during follow up visits at the end of weeks 1, 2, 3, 4, 6, 8, 10, 12 and 16, serum calcium, phosphorus, albumin, and creatinine were evaluated, and dose adjustment of supplemental calcium medications was performed based on albumin adjusted calcium (ACa) levels. […] Quality of Life was (QoL) was monitored using a standard questionnaire.

The subject of another data set is hypoparathyroidism. The note with it: cited from earlier work.
[7] abbreviates: patient, 16-week treatment, FIG. 8.

Consider `O=C(O)CCCCCCCNC(=O)c1ccccc1O` [SNAC, sodium 8-N-(2-hydroxybenzoyl)aminocaprylate], for which the “dissolution of SNAC from tablets, effect of sodium bicarbonate” value in data set [1] is on record as “considerably enhanced the dissolution”.

On to `CC[C@H](C)[C@H](NC(=O)[C@H](CCC(=O)O)NC(=O)[C@H](CO)NC(=O)[C@@H](NC(=O)[C@@H](N)CO)C(C)C)C(=O)N[C@@H](CCC(N)=O)C(=O)N[C@@H](CC(C)C)C(=O)N[C@@H](CCSC)C(=O)N[C@@H](Cc1cnc[nH]1)C(=O)N[C@@H](CC(N)=O)C(=O)N[C@@H](CC(C)C)C(=O)NCC(=O)N[C@@H](CCCCN)C(=O)N[C@@H](Cc1cnc[nH]1)C(=O)N[C@@H](CC(C)C)C(=O)N[C@@H](CC(N)=O)C(=O)N[C@@H](CO)C(=O)N[C@@H](CCSC)C(=O)N[C@@H](CCC(=O)O)C(=O)N[C@@H](CCCN=C(N)N)C(=O)N[C@H](C(=O)N[C@@H](CCC(=O)O)C(=O)N[C@@H](Cc1c[nH]c2ccccc12)C(=O)N[C@@H](CC(C)C)C(=O)N[C@@H](CCCN=C(N)N)C(=O)N[C@@H](CCCCN)C(=O)N[C@@H](CCCCN)C(=O)N[C@@H](CC(C)C)C(=O)N[C@@H](CCC(N)=O)C(=O)N[C@@H](CC(=O)O)C(=O)N[C@H](C(=O)N[C@@H](Cc1cnc[nH]1)C(=O)N[C@@H](CC(N)=O)C(=O)N[C@@H](Cc1ccccc1)C(=O)O)C(C)C)C(C)C` [teriparatide], for which the “Cmax of PTH(1-34) following oral administration, relation to dose” value in data set [2] (oral doses 200, 400, 680, 1400 or 1800 μg) is “proportional to the dose”. In addition, in data set [2] (oral tablets with SNAC, soybean trypsin inhibitor, magnesium stearate, 8-hour overnight fast), the “oral dose of teriparatide providing a Cmax equivalent to that of subcutaneous administration of 20 μg teriparatide” value is given as “roughly 750 μg”. Further, the “plasma cAMP levels” value in data set [3] is on record as “increased plasma cAMP levels to a similar degree”. Further, in data set [4] (3 subjects with sustained elevations), the “urinary calcium, margin below the upper limit of normal” value is “more than 30%”. Besides, in data set [4] (13 subjects with sustained decrease), the “average decrease in urinary calcium” value was determined as 34%. Besides, the urinary calcium in data set [4] (13 subjects with sustained decrease, from 209 mg per 24 hours) amounted to 136 mg per 24 hours. Moreover, the “serum phosphorus after each dose, range” value in data set [4] (60 minutes after oral dose, throughout 16 weeks) is 2.9 to 5.2 mg/dL. Also, in data set [4] (60 minutes after oral dose, throughout 16 weeks, p<0.02, FIG. 5), the “serum phosphorus, average level after each dose” value amounted to 4.3 mg/dL. Also, the “pre-dose serum phosphorus levels” value in data set [4] (FIG. 5) is listed as “reduced following 2 weeks of treatment”. Also, in data set [4] (after 16 weeks, relative to baseline), the “reduction of calcium intake” value was 1278 ± 880 mg. Also, in data set [4] (after 16 weeks, relative to baseline, FIG. 4), the “average reduction of calcium intake” value is recorded as 37%. In data set [4] (after 16 weeks, baseline 3692 mg), the calcium intake was 2414 mg. In addition, in data set [4] (at the end of 16 weeks, subjects who completed the study), the “subjects with urinary calcium above the normal range” value is “one of the 17”. The “albumin adjusted calcium, range” value in data set [4] (during treatment, baseline range 7.2-8.99) was 6.97-9.14 md/dL. Moreover, the “albumin adjusted calcium, mean level” value in data set [4] (maintained during treatment while calcium intake was decreased, baseline 7.92) came out at 8.15 mg/dL. Moreover, in data set [4] (oral 750 μg per dose, 4 times per day, 16 weeks, 17 subjects completed), the related adverse events result is reported as “no related adverse events”. In data set [4] (oral 750 μg per dose, 4 times per day, 16 weeks, 17 subjects completed, over 8000 doses), the safety and tolerability result is “safe and well tolerated”. In data set [4] (setting [7]), the “reduction of calcium intake, sample case” value is given as “over 50%” and the “reduction of urinary calcium levels, sample case” value is “over 50%”. Besides, the “total serum levels of 25-hydroxycholecalciferol (25(OH)D), sample case” value in data set [4] (patient, end of week 4, baseline 32.2 ng/ml, constant alphacalcidol) was determined as 36.7 ng/mL. Besides, in data set [4] (patient, FIG. 9), the “ACa levels, sample case” value is recorded as “gradually increased” and the “serum phosphate levels, sample case” value is reported as “gradually decreased”. The “Quality of Life health score, sample case” value in data set [4] (patient, increased from 70) was found to be 80. The “increase in absorption of PTH(1-34) (AUC)” value in data set [5] was “about 35%”. For the same compound, the “PTH(1-34) serum levels, after a meal relative to prior to a meal, sample case” value in data set [6] (patient, FIG. 10) is reported as “about half”. For the same compound, in data set [6] (FIGS. 6 and 7), the “PTH(1-34) serum levels, after a meal relative to prior to a meal” value was “about half”. Also, the “reduction in the PTH dose needed to maintain normal serum calcium levels” value with hypoparathyroidism (pump vs twice-daily subcutaneous injection, from 37 μg per day to 13 μg per day) is listed as 65%. Besides, the “reduction in urine calcium” value in the data set on hypoparathyroidism (subcutaneous infusion by insulin pump vs twice-daily subcutaneous injection) is reported as “more than 50%”.
